According to patent US10231967B2, “Compounds and their use as BACE inhibitors” (ASTRAZENECA AB, priority 2010, dated 2019):
pIC50: −log10 of the molar value.

The molecules below were run on sAPPβ release in SH-SY5Y cells (assay: sAPPβ release assay). Settings: Homo sapiens, SH-SY5Y, 17 h, compounds incubated 17 h, MSD detection.
Format: cell-based
Procedure: Thaw cells and seed at a conc. of around 10000 cells/well in DMEM/F-12 with Glutamax, 10% FCS and 1% non-essential amino acids to a 384-well tissue culture treated plate, 100 μL cell susp/well. […] The cell medium was removed, followed by addition of 30 μL compound diluted in DMEM/F-12 with Glutamax, 10% FCS, 1% non-essential amino acids and 1% PeSt to a final conc. of 1% DMSO. The compounds were incubated with the cells for 17 h (overnight) at 37° C., 5% CO2. Meso Scale Discovery (MSD) plates were used for the detection of sAPPβ release. MSD sAPPβ plates were blocked in 1% BSA in Tris wash buffer (40 μL/well) for 1 h on shake at r.t. and washed 1 time in Tris wash buffer (40 μL/well). 20 μL of medium was transferred to the pre-blocked and washed MSD sAPPβ microplates, and the cell plates were further used in an ATP assay to measure cytotoxicity. The MSD plates were incubated with shaking at r.t. for 2 h and the media discarded. 10 μL detection antibody was added (1 nM) per well followed by incubation with shaking at r.t. for 2 h and then discarded. 40 μL Read Buffer was added per well and the plates were read in a SECTOR Imager.
`CC#Cc1cncc(-c2ccc3c(c2)C2(N=C(C)C(N)=N2)C2(CCC(F)(F)CC2)C3)c1` (stereo not drawn) [Example 28h, 4,4-Difluoro-5″-methyl-6′-[5-(prop-1-yn-1-yl)pyridin-3-yl]-3′H-dispiro[cyclohexane-1,2′-indene-1′,2″-imidazol]-4″-amine] gave a pIC50 of 7.74. `CC1=N[C@]2(C[C@@H]([C@@H]3CCCOC3)Oc3ccc(-c4cccc(Cl)c4)cc32)N=C1N` [Example 48 Isomer 1, (2S,4R)-6-(3-chlorophenyl)-5′-methyl-2-[(3R)-tetrahydro-2H-pyran-3-yl]-2,3-dihydrospiro[chromene-4,2′-imidazol]-4′-amine] showed a pIC50 of 7.70. In the case of `CC1=N[C@]2(C[C@H]([C@H]3CCCOC3)Oc3ccc(-c4cccc(Cl)c4)cc32)N=C1N` [Example 48 Isomer 4, (2R,4R)-6-(3-chlorophenyl)-5′-methyl-2-[(3 S)-tetrahydro-2H-pyran-3-yl]-1′,2,3,3′-tetrahydrospiro[chromene-4,2′-imidazol]-4′-amine], the pIC50 was 6.16. For `CC1=N[C@]2(C[C@H]([C@@H]3CCCOC3)Oc3ccc(-c4cccc(Cl)c4)cc32)N=C1N` [Example 48 Isomer 7, (2R,4R)-6-(3-chlorophenyl)-5′-methyl-2-[(3R)-tetrahydro-2H-pyran-3-yl]-1′,2,3,3′-tetrahydrospiro[chromene-4,2′-imidazol]-4′-amine], the pIC50 was 6.72. Work on `CC1=N[C@]2(C[C@@H]([C@H]3CCCOC3)Oc3ccc(-c4cccc(Cl)c4)cc32)N=C1N` [Example 48 Isomer 8, (2S,4R)-6-(3-chlorophenyl)-5′-methyl-2-[(3S)-tetrahydro-2H-pyran-3-yl]-1′,2,3,3′-tetrahydrospiro[chromene-4,2′-imidazol]-4′-amine] yielded a pIC50 of 6.69. For `CC#Cc1cncc(-c2ccc3c(c2)C2(CCC3)N=C(C)C(N)=N2)c1` (stereo not drawn) [Example 53, 5-Methyl-7′-(5-(prop-1-ynyl)pyridin-3-yl)-3′,4′-dihydro-2′H-spiro[imidazole-2,1′-naphthalen]-4-amine], the pIC50 was 7.68. `CC1=NC2(N=C1N)c1cc(-c3cncc(Cl)c3)ccc1CC21CCC1` (stereo not drawn) [Example 55, 6′-(5-Chloropyridin-3-yl)-5″-methyl-3′H-dispiro[cyclobutane-1,2′-indene-1′,2″-imidazol]-4″-amine] was tested, and the pIC50 was 6.93. `CC#Cc1cncc(-c2ccc3c(c2)C2(N=C(C)C(N)=N2)C2(CCC2)C3)c1` (stereo not drawn) [Example 56, 5″-Methyl-6′-[5-(prop-1-yn-1-yl)pyridin-3-yl]-3′H-dispiro[cyclobutane-1,2′-indene-1′,2″-imidazol]-4″-amine] showed a pIC50 of 7.62. With `CC1=NC2(N=C1N)c1cc(C#CC3CC3)ccc1CC21CCC1` (stereo not drawn) [Example 58, 6′-(Cyclopropylethynyl)-5″-methyl-3′H-dispiro[cyclobutane-1,2′-indene-1′,2″-imidazol]-4″-amine] the pIC50 was 6.66. Molecule `CO[C@H]1CC[C@]2(CC1)Cc1ccc(-c3cnc(C)c(Cl)c3)cc1C21N=C(C)C(N)=N1` (stereo partly drawn) [Example 60, (1r,4r)-6′-(5-Chloro-6-methylpyridin-3-yl)-4-methoxy-5″-methyl-3′H-dispiro[cyclohexane-1,2′-indene-1′,2″-imidazol]-4″-amine] has a pIC50 of 8.06. `CO[C@H]1CC[C@]2(CC1)Cc1ccc(-c3cnc(C)c(Cl)c3)cc1[C@@]21N=C(C)C(N)=N1` [Example 61, (1r,1′R,4R)-6′-(5-Chloro-6-methylpyridin-3-yl)-4-methoxy-5″-methyl-3′H-dispiro[cyclohexane-1,2′-indene-1′,2″-imidazol]-4″-amine] was tested, and the pIC50 was 8.51. Work on `CO[C@H]1CC[C@]2(CC1)Cc1ccc(-c3cc(Cl)cnc3C)cc1C21N=C(C)C(N)=N1` (stereo partly drawn) [Example 62, (1r,4r)-6′-(5-Chloro-2-methylpyridin-3-yl)-4-methoxy-5″-methyl-3′H-dispiro[cyclohexane-1,2′-indene-1′,2″-imidazol]-4″-amine] yielded a pIC50 of 8.07. With `CCC1=NC2(N=C1N)c1cc(-c3cncc(Cl)c3)ccc1C[C@]21CC[C@@H](OC)CC1` (stereo partly drawn) [Example 65, (1r,4r)-6′-(5-Chloropyridin-3-yl)-5-ethyl-4-methoxy-3′H-dispiro[cyclohexane-1,2′-indene-1′,2″-imidazol]-4″-amine] the pIC50 was 8.47. Work on `CC#Cc1cncc(-c2ccc3c(c2)C2(N=C(N)C(CC)=N2)[C@]2(CC[C@H](OC)CC2)C3)c1` (stereo partly drawn) [Example 67, (1r,4r)-5″-Ethyl-4-methoxy-6′-[5-(prop-1-yn-1-yl)pyridin-3-yl]-3′H-dispiro[cyclohexane-1,2′-indene-1′,2″-imidazol]-4″-amine] yielded a pIC50 of 9.09. In the case of `CCC1=NC2(N=C1N)c1cc(-c3cccc(C#N)c3)ccc1C[C@]21CC[C@@H](OC)CC1` (stereo partly drawn) [Example 70, 3-[(1r,4r)-4″-amino-5″-ethyl-4-methoxy-3′H-dispiro[cyclohexane-1,2′-indene-1′,2″-imidazol]-6′-yl]benzonitrile], the pIC50 was 7.89. Molecule `CO[C@H]1CC[C@]2(CC1)Cc1ccc(-c3cc(C)cc(C#N)c3)cc1C21N=C(C)C(N)=N1` (stereo partly drawn) [Example 74, 3-[(1r,4r)-4″-Amino-4-methoxy-5″-methyl-3′H-dispiro[cyclohexane-1,2′-indene-1′,2″-imidazol]-6′-yl]-5-methylbenzonitrile] has a pIC50 of 8.68. `CO[C@H]1CC[C@]2(CC1)Cc1ccc(C#N)cc1C21N=C(C)C(N)=N1` (stereo partly drawn) [Example 79, (1r,4r)-4″-Amino-4-methoxy-5″-methyl-3′H-dispiro[cyclohexane-1,2′-indene-1′,2″-imidazole]-6′-carbonitrile] gave a pIC50 of 6.77. Work on `COCc1cccc(-c2ccc3c(c2)C2(N=C(C)C(N)=N2)[C@]2(CC[C@H](OC)CC2)C3)c1` (stereo partly drawn) [Example 80, (1r,4r)-4-Methoxy-6′-[3-(methoxymethyl)phenyl]-5″-methyl-3′H-dispiro[cyclohexane-1,2′-indene-1′,2″-imidazol]-4″-amine] yielded a pIC50 of 7.89. In the case of `COCc1cc(F)cc(-c2ccc3c(c2)C2(N=C(C)C(N)=N2)[C@]2(CC[C@H](OC)CC2)C3)c1` (stereo partly drawn) [Example 81, (1r,4r)-6′-[3-Fluoro-5-(methoxymethyl)phenyl]-4-methoxy-5″-methyl-3′H-dispiro[cyclohexane-1,2′-indene-1′,2″-imidazol]-4″-amine], the pIC50 was 7.70. `CO[C@H]1CC[C@]2(CC1)Cc1ccc(-c3cncc(COCC(F)(F)F)c3)cc1C21N=C(C)C(N)=N1` (stereo partly drawn) [Example 82, (1r,4r)-4-Methoxy-5″-methyl-6′-{5-[(2,2,2-trifluoroethoxy)methyl]pyridin-3-yl}-3′H-dispiro[cyclohexane-1,2′-indene-1′,2″-imidazol]-4″-amine] gave a pIC50 of 7.44. `CO[C@H]1CC[C@]2(CC1)Cc1ccc(-c3cncc(C(F)(F)F)c3)cc1[C@@]21N=C(C)C(N)=N1` [Example 84, (1r,1′R,4R)-4-Methoxy-5″-methyl-6′-[5-(trifluoromethyl)pyridin-3-yl]-3′H-dispiro[cyclohexane-1,2′-indene-1′,2″-imidazol]-4″-amine] was tested, and the pIC50 was 9.00.

Same assay, conditions: Homo sapiens, compounds incubated 17 h, MSD detection
For `COC1CCC2(CC1)Oc1ccc(Br)cc1C21N=C(C)C(N)=N1` (stereo not drawn) [Example 29, 5′-bromo-4-methoxy-5″-methyldispiro[cyclohexane-1,2′-[1]benzofuran-3′,2″-imidazol]-4″-amine], the pIC50 was 6.07. With `COC1CCC2(CC1)Oc1ccc(-c3cncc(Cl)c3)cc1C21N=C(C)C(N)=N1` (stereo not drawn) [Example 30d, 5′-(5-Chloropyridin-3-yl)-4-methoxy-5′-methyldispiro[cyclohexane-1,2′-[1]benzofuran-3′,2″-imidazol]-4″-amine] the pIC50 was 7.01. With `CC1=NC2(CCCc3ccc(-c4cncc(Cl)c4)cc32)N=C1N` (stereo not drawn) [Example 52, 7′-(5-Chloropyridin-3-yl)-5-methyl-3′,4′-dihydro-2′H-spiro[imidazole-2,1′-naphthalen]-4-amine] the pIC50 was 7.04. For `CC#Cc1cncc(-c2ccc3c(c2)C2(N=C(C)C(N)=N2)[C@]2(CC[C@H](OC)CC2)C3)c1C` (stereo partly drawn) [Example 63, (1r,4r)-4-Methoxy-5″-methyl-6′-[4-methyl-5-(prop-1-yn-1-yl)pyridin-3-yl]-3′H-dispiro[cyclohexane-1,2′-indene-1′,2″-imidazol]-4″-amine], the pIC50 was 7.54. For `CCC1=NC2(N=C1N)c1cc(Br)ccc1C[C@]21CC[C@@H](OC)CC1` (stereo partly drawn) [Example 64, (1r,4r)-6′-Bromo-5″-ethyl-4-methoxy-3′H-dispiro[cyclohexane-1,2′-indene-1′,2″-imidazol]-4″-amine], the pIC50 was 6.90. Molecule `CCC1=NC2(N=C1N)c1cc(-c3cncc(C#N)c3)ccc1C[C@]21CC[C@@H](OC)CC1` (stereo partly drawn) [Example 69, 5-[(1r,4r)-4″-Amino-5″-ethyl-4-methoxy-3′H-dispiro[cyclohexane-1,2′-indene-1′,2″-imidazol]-6′-yl]pyridine-3-carbonitrile] has a pIC50 of 8.00. With `CC#Cc1cncc(-c2ccc3c(c2)[C@@]2(N=C(C)C(N)=N2)[C@]2(CC[C@H](O)CC2)C3)c1` [Example 73, (1r,1′R,4R)-4″-Amino-5″-methyl-6′-[5-(prop-1-yn-1-yl)pyridin-3-yl]-3′H-dispiro[cyclohexane-1,2′-indene-1′,2″-imidazol]-4-ol] the pIC50 was 9.00. Molecule `CC1=NC2(N=C1N)c1cc(-c3cc(Cl)cc(C#N)c3)ccc1CC21CC1` (stereo not drawn) [Example 78, 3-(4″-Amino-5″-methyl-3′H-dispiro[cyclopropane-1,2′-indene-1′,2″-imidazol]-6′-yl)-5-chlorobenzonitrile] has a pIC50 of 7.25. In the case of `CO[C@H]1CC[C@]2(CC1)Cc1ccc(-c3cncc(C)c3)cc1[C@@]21N=C(C)C(N)=N1` [Example 83, (1r,1′R,4R)-4-Methoxy-5″-methyl-6′-(5-methylpyridin-3-yl)-3′H-dispiro[cyclohexane-1,2′-indene-1′,2″-imidazol]-4″-amine], the pIC50 was 8.54.
